Laboratory results as given in patent US6590123B2, “Aminobenzoic acid derivatives having anti-tumorigenic activity, methods of making and using the same” (Mount Sinai School of Medicine of New York University, priority 1998, dated 2003).
Entries after “also recorded” stand apart in the source; their conditions may differ.

Key:
CEM cells [1] = test: Morphology by microscopy (mitotic arrest, apoptosis, necrosis); assay type: cell-based, human; design: key to Block of Mitosis: +Block of mitosis was observed; −no mitotic blocking; settings: for mitotic arrest (blocking) effect, morphological appearance / Mitotic arrest, % / apoptosis by morphology: CEM cells; for mitotic arrest (blocking) effect, morphological appearance: 24 h, compound 8 at 0.025 μg/ml, compound 9 at 0.005 μg/ml; for morphological effect on leukemic cells / Activities of inducing Apoptosis / Activities of inducing Mitotic block / Activities of inducing Necrosis: CEM leukemic cells; for Activities of inducing Apoptosis / Activities of inducing Mitotic block / Activities of inducing Necrosis: % of affected cells; for Mitotic arrest, %: % of mitotic cells after 24 h incubation, optical microscopy; for apoptosis by morphology: treatment prolonged to 48 h
Method: Slides for examination of mitosis were prepared on a cytospin centrifuge (Shandon Southern Products Ltd, England ) at 700 g for 5 min. Slides were air dried, fixed in methanol and stained with Giemsa (Harleco, N.J.) at room temperature for 15 min. Cells in mitotic arrest were recognized by the disappearance of nuclear membrane and by the appearance of chromosomal scattering throughout the cytoplasm (reference 1). The % of mitotic cells were counted after 24 h incubation using optical microscopy. Apoptotic cells were identified using common criteria, i.e., shrinkage in cell size, chromatin condensation and fragmentation of the nucleus into discrete masses (reference 2).
(§1) Cell samples on slides were prepared by a Cytospin centrifuge (Shandon Southern Products Ltd, England) at 700 g for 5 min. The slides were air dried, fixed in methanol and stained with Giemsa (Harleco, N.J.) at room temperature for 15 min. Alterations of nuclei, membranes and morphological features were observed by light microscopy. Cells in mitotic phase were recognized by the appearance of their chromosomes dispersed in the cytoplasm, and by the disappearance of nuclear membrane. Apoptotic-cells were identified using previously defined criteria, i.e., shrinkage in cell size, chromatin condensation and fragmentation of the nucleus into discrete masses (references 2 & 3). Necrotic cells were differentiated from apoptotic cells by observing swollen cytoplasm and the disappearance of cell membrane prior to the destruction of the nucleus.

CEM cells [2] = test: Cell cycle analysis by flow cytometry; assay type: cell-based, human; settings: for shift of the cell population from G0/G1 (2N) to G2/M (4N), DNA profile: 8 h treatment, compound 6 2.5 μg/ml, compound 8 0.025 μg/ml, compound 9 0.005 μg/ml; for Apoptosis (%) / G0/G1 (%) / G2/M (%) / S (%) / Mitotic Arrest: 0.025 μg/ml; for Mitotic Arrest: cell cycle analyses
B16 mouse melanoma = test: Block of mitosis, morphology by microscopy; assay type: cell-based; design: key to Block of Mitosis: +Block of mitosis was observed; −no mitotic blocking
Method: (§2) All cell lines, with the exception of human SP cells, a biphenotypic leukemic cell line (reference 10 & 11), were obtained from the American Tissue Culture Collection (Rockville, Md.) and were cultured under conditions recommended by the vendor. EL4 murine leukemia lymphoma (as suspension) and B16 mouse melanoma (as monolayer) cell lines were cultivated in RPMI-1640 medium supplemented with 10% fetal bovine serum (FBS), penicillin (250 μ/ml) and streptomycin (250 μml); MOT, a non-tumor proliferative myocardial cell line from rat and NIH 3T3, a non-malignant and proliferative fibroblast cell line from mouse were both cultured as monolayers in Dulbecco's Modified Eagle's Medium with 10% heat inactivated calf serum. CEM, a human acute T-cell leukemic cell line, was cultured as a suspension in Iscove's Dulbecco's Medium with 10% heat inactivated fetal calf serum and antibiotics. PC-3 cells, a human prostate cancer line, was cultured as monolayers in RPMI-1640 with 10% FBS. SP cells were cultured in Minimum Eagle's Medium plus 10% FBS. Human peripheral blood lymphocytes (PBL) were isolated from whole blood of healthy individuals by Ficoll-Hypaque gradient method. Isolated PBL were maintained in RPMI-1640 in the presence of 10% homologous plasma at 37° C. All cells were incubated at 37° C. in 5% C02. Cells in exponential growth were used.
as §1

[3] = test system: Human peripheral blood lymphocytes (PBL); test: Block of mitosis, morphology by microscopy; assay type: cell-based; design: key to Block of Mitosis: +Block of mitosis was observed; −no mitotic blocking
Method: as §2, §1

[4] = test system: EL4 murine leukemia lymphoma; test: Block of mitosis, morphology by microscopy; assay type: cell-based; design: key: +Block of mitosis was observed; −no mitotic blocking; settings: 37° C. for 48 hr
Method: as §2, with “used. […]” for “used.”

[5] = test system: P338 leukemia lymphoma cells; test: Survival and ED50 in mice implanted i.p. with P338 lymphoma; assay type: in vivo, male C57 BL/6JX mice; settings: for ED50: P338 leukemia lymphoma i.p. in mice, drug i.p. on days 2 and 8
Method: FIG. 9 is a plot graph of the survival rate of male C57 BL/6JX mice implanted (i.p.) with P338 lymphoma, from 10 to 40 days after implantation. Two groups were used for the study: a control group of ten and a test group of ten that were treated with 20 mg/kg, (i.p.) of compound 8 at 2 and 8 days post-implantation.
(§3) The in vivo efficacy of 3-BAABU and 3-IAABU of the present invention was asssessed in a murine model, along with known anti-tubule agents, vinblastine and paclitaxel, as a comparative standard. Approximately 10^6 P338 leukemia lymphoma cells/mouse were implanted intra-peritoneal (i.p.) into male C57 BL/6JX mice (Jackson Laboratories, N.Y.). On days 2 and 8 post-implantation, drugs were administrated i.p. at the following concentration ranges: 3-BAABU from 16.6 to 116 μmole/kg, 3-IAABU from 14.4 to 101 μmole/kg, vinblastine from 2.2 to 20 μmole/kg and paclitaxel from 28 to 57 μmole/kg.
(§4) Both control and treated animals were examined for ascitic tumor burden daily for 35 days. […] Therapeutic index was defined as the ratio of LD50 (lethal dose) to ED50 (effective dose).

L1210 Leukemia = test: Survival of mice implanted i.p. with L1210 Leukemia; assay type: in vivo
[6] = LD50 (lethal dose) in mice; settings: mouse, in vivo, ip
From the text: as §3, §4

NC(=O)NC(=O)c1cccc(NC(=O)CCl)c1 [Compound 7, 3-Chloroacetoamido, benzoylurea]
mitotic arrest (blocking) effect, morphological appearance (CEM cells [1]): minor
morphological effect on leukemic cells (CEM cells [1]): also induced mitotic arrest but with less disorganization
Activities of inducing Apoptosis (CEM cells [1]): ++ (++: 25-50%)
Activities of inducing Mitotic block (CEM cells [1]): + (+10-25%)
Activities of inducing Necrosis (CEM cells [1]): − (−:<10%)
shift of the cell population from G0/G1 (2N) to G2/M (4N), DNA profile (CEM cells [2]): slight increase

NC(=O)NC(=O)c1cccc(NC(=O)CBr)c1 [Compound 8, 3-Bromoacetoamido, benzoylurea]
Block of Mitosis (B16 mouse melanoma; B16, Murine melanoma, 37° C. for 48 hr): +
morphologic effect (B16 mouse melanoma; murine melanoma cells, 0.25 μg/ml, 24 hr at 37° C.): induced mitotic arrest
Block of Mitosis ([3]; Normal human PBL (non-tumor), 37° C. for 48 hr): −
morphologic effect ([3]; normal human lymphocytes, 2 μg/ml, 24 hr at 37° C.): no effect
Block of Mitosis [4]: +
Survival IL % ([5]; P338 Lymphoma (i.p.), 20 mg/kg ip on days 2 & 8): 54%
Survival Mean ± SD ([5]; P338 Lymphoma (i.p.), 20 mg/kg ip on days 2 & 8, control 18.6 ± 1.1): 28.6 ± 5.2
ED50 [5]: 27 µmol/kg
mitotic arrest (blocking) effect, morphological appearance (CEM cells [1]): main features of mitotic arrest
Mitotic arrest, % (CEM cells [1]): >85%
apoptosis by morphology (CEM cells [1]): complete apoptosis
morphological effect on leukemic cells (CEM cells [1]): induced mitotic arrest
Activities of inducing Apoptosis (CEM cells [1]): ++++ (++++: >75%)
Activities of inducing Mitotic block (CEM cells [1]): ++++ (++++: >75%)
Activities of inducing Necrosis (CEM cells [1]): − (−:<10%)
Block of Mitosis (CEM cells [1]; CEM, Human T-cell Leukemia, 37° C. for 48 hr): +
Survival IL % (L1210 Leukemia; 20 mg/kg ip on days 2 & 8): 44%
Survival Mean ± SD (L1210 Leukemia; 20 mg/kg ip on days 2 & 8, control 16.5 ± 1.4): 23.7 ± 4.4
Apoptosis (%) (CEM cells [2]; 1 hour of treatment): 2%
G0/G1 (%) (CEM cells [2]; 1 hour of treatment): 48%
G2/M (%) (CEM cells [2]; 1 hour of treatment): 21%
S (%) (CEM cells [2]; 1 hour of treatment): 29%
Apoptosis (%) (CEM cells [2]; 2 hours of treatment): 1%
G0/G1 (%) (CEM cells [2]; 2 hours of treatment): 35%
G2/M (%) (CEM cells [2]; 2 hours of treatment): 22%
S (%) (CEM cells [2]; 2 hours of treatment): 42%
Apoptosis (%) (CEM cells [2]; 4 hours of treatment): 4%
G0/G1 (%) (CEM cells [2]; 4 hours of treatment): 28%
G2/M (%) (CEM cells [2]; 4 hours of treatment): 29%
S (%) (CEM cells [2]; 4 hours of treatment): 39%
Apoptosis (%) (CEM cells [2]; 8 hours of treatment): 5%
G0/G1 (%) (CEM cells [2]; 8 hours of treatment): 16%
G2/M (%) (CEM cells [2]; 8 hours of treatment): 44%
S (%) (CEM cells [2]; 8 hours of treatment): 35%
Apoptosis (%) (CEM cells [2]; 12 hours of treatment): 7%
G0/G1 (%) (CEM cells [2]; 12 hours of treatment): 4%
G2/M (%) (CEM cells [2]; 12 hours of treatment): 60%
S (%) (CEM cells [2]; 12 hours of treatment): 29%
Apoptosis (%) (CEM cells [2]; 24 hours of treatment): 18%
G0/G1 (%) (CEM cells [2]; 24 hours of treatment): 2%
G2/M (%) (CEM cells [2]; 24 hours of treatment): 70%
S (%) (CEM cells [2]; 24 hours of treatment): 10%
Apoptosis (%) (CEM cells [2]; 48 hours of treatment): 33%
G0/G1 (%) (CEM cells [2]; 48 hours of treatment): 1%
G2/M (%) (CEM cells [2]; 48 hours of treatment): 61%
S (%) (CEM cells [2]; 48 hours of treatment): 5%
shift of the cell population from G0/G1 (2N) to G2/M (4N), DNA profile (CEM cells [2]): major shift
Mitotic Arrest (CEM cells [2]; Continuous Exposure (24 hr; 48 hr in footnote)): ++++ (++++: >75% cells were affected)
Mitotic Arrest (CEM cells [2]; Pulse Exposure (1 hr)): ++++ (++++: >75% cells were affected)
LD50 [6]: about 90 μmole/kg

NC(=O)NC(=O)c1cccc(NC(=O)CI)c1 [Compound 9, 3-Iodoacetoamido, benzoylurea]
ED50 [5]: 26 µmol/kg
mitotic arrest (blocking) effect, morphological appearance (CEM cells [1]): main features of mitotic arrest
Mitotic arrest, % (CEM cells [1]): >85%
apoptosis by morphology (CEM cells [1]): complete apoptosis
shift of the cell population from G0/G1 (2N) to G2/M (4N), DNA profile (CEM cells [2]): most significant transformation; also recorded: major shift
LD50 [6]: about 90 μmole/kg
